Legend:
[1] = target: T1, Staphylococcus aureus lipase (SAL) (Staphylococcus aureus, UniProt A0A0U1MWF9); test: p-nitrophenyl butyrate hydrolysis, absorbance […] nm; type: biochemical
T1 construct: gene lip; one Ca and one Zn per monomer

[2] = target: Staphylococcus aureus lipase (Staphylococcus aureus); test: SEC + other: SEC-SAXS

Compound | IC50 [1] | stoichiometry N [2]
CCCCCCCCCCC/C=C\CCCCC(=O)OC [PSM, petroselinic acid methyl ester] | 10.5 µM | –
Staphylococcus aureus lipase (from UniProt A0A1R3UHM3 1-645) (enzyme) | – | 2
CCCCCCCCCCC/C=C\CCCCC(=O)O [PSA, petroselinic acid] | 3.4 µM | –

From paper PMC11148114 (FEBS Open Bio, 2024)
